# “And” between values parts separate entries of the source, which are not always exact repeats. Equal entries are not always repeated.
# Tested on: 616215-338-R-J1-PDC tumor spheroids, viability
# Assay: Anticancer human tumor 616215-338-R-J1-PDC patient-derived colon adenocarcinoma cell line growth inhibition [GQUAD]
# Settings: spheroids with HUVEC and MSC; for viability, T/C: stronger effect = lower value
# Excerpt: DNA G-quadruplex Stabilizer Agents in Combinations in Complex Spheroids
# A high-throughput screen of multi-cell type tumor spheroids was designed to identify active combinations of DNA G-quadruplex stabilizer agents and targeted small molecules. Complex spheroids include a stromal component modeled by human endothelial cells (HUVEC) and fibroblasts modeled by human mesenchymal stem cells (MSCs). The concentration ranges selected for each drug and investigational agent were based upon clinically achievable concentrations if the clinical Cmax of the agent was known.
# Compounds. The drugs and investigational agents: pidnarulex (CX-5461; NSC782164), APTO-253 (NSC789042), BRACO-19 (NSC847499), peposertib (NSC802822), ceralasertib (NSC780249), elimusertib (NSC800525), camonsertib (NSC841442), AZD-1390 (NSC803789), olaparib (NSC753686), talazoparib (NSC767125), ART-558 (NSC835418), sotorasib (NSC818433), MRTX-1133 (NSC836407), SN-38 (NSC673596), topotecan (NSC609699), etoposide (NSC141540), doxorubicin (NSC123127), gemcitabine (NSC613327), 5-fluorouracil (NSC19893), paclitaxel (NSC125973), vemurafenib (NSC761431), panobinostat (NSC761190), R-306465 (JNJ-16241199; NSC773264), adavosertib (NSC754352), TP-3654 (NSC805149), carboplatin (NSC241240), KSQ-4279 (NSC840948), and staurosporine (NSC755774) were obtained from the National Cancer Institute (NCI) Developmental Therapeutics Program Chemical Repository (34). The FDA-approved anticancer drug set is available from the NCI Developmental Therapeutics Program. […] The stock solutions were prepared in dimethyl sulfoxide (DMSO, Sigma-Aldrich, St. Louis, MO, cat. D2650) at 800-fold the tested concentration and stored at -70 degrees C prior to their use. All drugs and investigational agents were tested over a range starting from a high concentration at or near the clinical Cmax and decreasing in half-log increments. If the clinical Cmax for an agent had not been determined, the highest concentration tested was 10 microM.
# 2.3 Cell Culture. All cells were maintained in an incubator at 37 degrees C and 5% CO2 with 95% humidity. The PDC lines were cultured according to standard operating procedures established by the NCI PDMR. All PDCs were thawed and cultured in Matrigel-coated flasks prepared with a working solution of 1X Ham's F-12 nutrient mix, without supplementation (Invitrogen, cat. 11765054), 100 U/mL penicillin-streptomycin (Invitrogen, cat. 15140122), and 2.5% Matrigel (Corning Inc., cat. 354248) for the first three passages. The 857933-349-R-J2-PDC line was cultured in 6C/Colon 1B media, which includes advanced DMEM/F-12 (Thermo Fisher Scientific, cat. 12634028), 10 mM HEPES (Thermo Fisher Scientific, cat. 15630080), 1X GlutaMAX supplement (Thermo Fisher Scientific, cat. 35050061), 0.1 mg/mL primocin (InvivoGen, cat. ant-pm-2), 10% defined fetal bovine serum, heat inactivated (HyClone Laboratories Inc., cat. SH30070.03HI), 50% L-WRN conditioned media (ATCC, cat. CRL-3276), 1.25 mM N-Acetyl-L-cysteine (Sigma-Aldrich, cat. A9165), 10 mM nicotinamide (Sigma-Aldrich, cat. N0636), 1X B-27 supplement (Thermo Fisher Scientific, cat. 17504044), 1X N-2 supplement (Thermo Fisher Scientific, cat. 17502048), 10 microM Y-27632 dihydrochloride (Tocris Bioscience, cat. 1254), and 50 ng/mL human EGF recombinant protein (Thermo Fisher Scientific, cat. PHG0311). The 485176-168-R4-J1-PDC line was cultured in Panc media, which includes all 6C/Colon 1B media components plus 100 ng/mL human FGF-10 (Thermo Fisher Scientific, cat. 100-26), 500 nM SB-431542 (Selleckchem, cat. S1067), and gastrin (Tocris, cat. 3006).
# […]
# 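Note: spheroids exposed to agents for 7 days before readout.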
# 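Throughout, for viability, T/C: percent viability relative to DMSO vehicle control wells taken as 100%.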
structure (smiles),measurement,setting,value
CN(C)c1ccc(Nc2c3ccc(NC(=O)CCN4CCCC4)cc3nc3cc(NC(=O)CCN4CCCC4)ccc23)cc1,"viability, T/C",compound 0.0316 µM,105% [middle of 12 runs]
same,"viability, T/C",compound 0.1 µM,104% [middle of 12 runs]
same,"viability, T/C",compound 0.316 µM,102% [middle of 12 runs]
same,"viability, T/C",compound 1 µM,100% [middle of 12 runs]
same,"viability, T/C",compound 3.16 µM,99.6% [middle of 12 runs]
same,"viability, T/C",compound 10 µM,93.9% [middle of 12 runs]
same,IC50,"compound alone, run of 04/22/2024",> 10000 nM
C#Cc1c(F)ccc2cc(O)cc(-c3ncc4c(N5CC6CCC(C5)N6)nc(OCC56CCCN5CC(F)C6)nc4c3F)c12 (stereo not drawn),"viability, T/C",compound 0.0316 µM,100% and 113% and 106%
same,"viability, T/C",compound 0.1 µM,90.1% and 98.3% and 110%
same,"viability, T/C",compound 0.316 µM,102% and 104% and 110%
same,"viability, T/C",compound 1 µM,80.2% and 106% and 104%
same,"viability, T/C",compound 3.16 µM,68% and 106% and 91.7%
same,"viability, T/C",compound 10 µM,45.8% and 63.5% and 59.2%
same,IC50,curve of compound,8040 nM and > 10000 nM
CC1COCCN1c1cc(C2(O)CC3CCC(C2)O3)c2cnn(-c3ccn[nH]3)c2n1 (stereo not drawn) + CN(C)c1ccc(Nc2c3ccc(NC(=O)CCN4CCCC4)cc3nc3cc(NC(=O)CCN4CCCC4)ccc23)cc1,IC50,"curve of first compound, second compound 0.0316 µM",184 nM
same,IC50,"curve of first compound, second compound 0.1 µM",213 nM
same,IC50,"curve of first compound, second compound 0.316 µM",196 nM
same,IC50,"curve of first compound, second compound 1 µM",201 nM
same,IC50,"curve of first compound, second compound 3.16 µM",225 nM
same,IC50,"curve of first compound, second compound 10 µM",139 nM
same,"viability, T/C","second compound 0.0316 µM, first compound 0.0316 µM",98.6%
same,"viability, T/C","second compound 0.0316 µM, first compound 0.1 µM",63.5%
same,"viability, T/C","second compound 0.0316 µM, first compound 0.316 µM",38.5%
same,"viability, T/C","second compound 0.0316 µM, first compound 1 µM",24%
same,"viability, T/C","second compound 0.0316 µM, first compound 3.16 µM",15.5%
same,"viability, T/C","second compound 0.0316 µM, first compound 10 µM",18.4%
same,"viability, T/C","second compound 0.1 µM, first compound 0.0316 µM",102%
same,"viability, T/C","second compound 0.1 µM, first compound 0.1 µM",72.7%
same,"viability, T/C","second compound 0.1 µM, first compound 0.316 µM",34.7%
same,"viability, T/C","second compound 0.1 µM, first compound 1 µM",30.3%
same,"viability, T/C","second compound 0.1 µM, first compound 3.16 µM",20.8%
same,"viability, T/C","second compound 0.1 µM, first compound 10 µM",15.2%
same,"viability, T/C","second compound 0.316 µM, first compound 0.0316 µM",94.3%
same,"viability, T/C","second compound 0.316 µM, first compound 0.1 µM",64.7%
same,"viability, T/C","second compound 0.316 µM, first compound 0.316 µM",36.4%
same,"viability, T/C","second compound 0.316 µM, first compound 1 µM",31.9%
same,"viability, T/C","second compound 0.316 µM, first compound 3.16 µM",17.3%
same,"viability, T/C","second compound 0.316 µM, first compound 10 µM",15.3%
same,"viability, T/C","second compound 1 µM, first compound 0.0316 µM",95.4%
same,"viability, T/C","second compound 1 µM, first compound 0.1 µM",72.5%
same,"viability, T/C","second compound 1 µM, first compound 0.316 µM",34.3%
same,"viability, T/C","second compound 1 µM, first compound 1 µM",24.1%
same,"viability, T/C","second compound 1 µM, first compound 3.16 µM",24.4%
same,"viability, T/C","second compound 1 µM, first compound 10 µM",11.7%
same,"viability, T/C","second compound 3.16 µM, first compound 0.0316 µM",99.5%
same,"viability, T/C","second compound 3.16 µM, first compound 0.1 µM",67.2%
same,"viability, T/C","second compound 3.16 µM, first compound 0.316 µM",41.3%
same,"viability, T/C","second compound 3.16 µM, first compound 1 µM",28.4%
same,"viability, T/C","second compound 3.16 µM, first compound 3.16 µM",25.2%
same,"viability, T/C","second compound 3.16 µM, first compound 10 µM",13.2%
same,"viability, T/C","second compound 10 µM, first compound 0.0316 µM",84.7%
same,"viability, T/C","second compound 10 µM, first compound 0.1 µM",55.2%
same,"viability, T/C","second compound 10 µM, first compound 0.316 µM",35.2%
same,"viability, T/C","second compound 10 µM, first compound 1 µM",27.1%
same,"viability, T/C","second compound 10 µM, first compound 3.16 µM",24.2%
same,"viability, T/C","second compound 10 µM, first compound 10 µM",13.4%
O=C(NO)c1cnc(N2CCN(S(=O)(=O)c3ccc4ccccc4c3)CC2)nc1,"viability, T/C",compound 0.0316 µM,101% and 114% and 112%
same,"viability, T/C",compound 0.1 µM,96.7% and 102% and 94.6%
same,"viability, T/C",compound 0.316 µM,53.2% (2×) and 60.8%
same,"viability, T/C",compound 1 µM,1.44% and 0.67% and 2.74%
same,"viability, T/C",compound 3.16 µM,0.23% and 0.21% and 0.06%
same,"viability, T/C",compound 10 µM,0.22% and 0.09%
same,IC50,curve of compound,339 nM and 331 nM and 380 nM

# Source: PubChem BioAssay AID2060493 (Molecular Pharmacology Branch, DTP, NCI, 2025)
